Measurements as given in PMC7766327, “Inhibition of Pneumolysin Cytotoxicity by Hydrolysable Tannins” (Antibiotics, 2020).

Tests used:
[1] = molecular target: T1, pneumolysin (Ply) (Streptococcus pneumoniae serotype 2, UniProt Q04IN8); assay: cell-based; format: cell-based
T1 construct: made in house; host or cells: E. coli BL21(DE3)
Procedure: Native human erythrocytes were taken into EDTA tubes. The erythrocytes were washed three times with PBS (0.15 M NaCl, 2.7 mM KCl, 8.1 mM Na2HPO4 and 1.5 mM KH2PO4) by centrifugation at 700× g for 10 min. The purified erythrocytes were stored at +4 °C. Erythrocytes (1% v/v) in PBS were mixed with 1 nM Ply and dilution series of polyphenol inhibitors in 96-well microtiter plates. The reaction was incubated for 30 min at 37 °C. The plates were centrifuged, and the supernatant was pipetted into flat-bottomed microtiter plates to measure the absorbance at 570 nm (VICTOR X4, PerkinElmer, Turku, Finland) of the released hemoglobin from lysed erythrocytes. The absorbances of triplicate measurements are presented as a function of inhibitor concentration. The IC50 values were calculated with Origin data analysis software (2016, OriginLab Corporation, Northampton, MA, USA).

[2] = molecular target: T1, pneumolysin (Ply); assay: Precipitation assay of pneumolysin-tannin interaction; format: binding
Procedure: The precipitation assay with tannins was done as described previously with bovine serum albumin [22]. First, 10 μM of Ply and dilution series of polyphenols (5–1000 µM) were incubated in a Na-acetate buffer (200 mM NaCl and 50 mM CH3COONa; pH 5.0) at 25 °C for 30 min with shaking. The reactions were carried out in Multiskan Ascent plate reader (Labsystems, Vantaa, Finland) and the precipitation was measured at 414 nm. The minimum concentration precipitating Ply was calculated with Origin data analysis software (2016, OriginLab Corporation, Northampton, MA, USA).

[3] = molecular target: T1, pneumolysin (Ply); assay: Pneumolysin oligomerization assay using erythrocytes; format: cell-based
Procedure: For the oligomerization assay, 100 nM Ply (3 µg), 1% (v/v) erythrocytes and 100 µM PGG in PBS were incubated for 2 min at 25 °C and were centrifuged at 16,000× g for 30 min at +7 °C. The pellet containing intact erythrocytes and the membranes from lysed cells were suspended into the water to complete the lysis and recentrifuged at 16,000× g for 30 min. The membranes were suspended into an SDS-PAGE sample buffer (60 mM Tris-HCl, pH 6.8; 2% SDS; 0.001% bromophenol blue; 0.5% β-mercaptoethanol) without incubation at 95 °C and the proteins were separated in 6% SDS-PAGE gel. The gel was stained with Coomassie blue (40% methanol; 10% acetic acid; 0.25% Brilliant blue R-250) and destained in 20% methanol and 5% acetic acid overnight. The proteins were transferred to polyvinyldifluoride (PVDF) membrane for 30 min, 25 V in SDS-PAGE running buffer (25 mM Tris, 190 mM glycine, 0.1% SDS) using the Trans-Blot Turbo Transfer System (Bio-Rad Laboratories Inc., Hercules, CA, USA). The membrane was blocked with 5% (w/v) defatted milk powder in TBS-Tween (10 mM Tris pH 7.5; 150 mM NaCl; 0.05% Tween 20) for 30 min at 25 °C. The His-tagged Ply was detected with anti-His antibody (1:5000 dilution, Sigma-Aldrich, St. Louis, MO, USA) and horseradish […] anti-mouse antibody (1:10,000 dilution, DakoCytomation, Glostrup, Denmark). […]

[4] = molecular target: T1, pneumolysin (Ply); assay: A549 cell cytotoxicity assay (LDH release); format: cell-based; conditions: 2 nM Ply, A549 cells, 2 h
Procedure: For the A549 cell cytotoxicity assay, 5000 cells/well of A549 cells were grown in Dulbecco’s modified Eagle Medium, DMEM (Thermo Fischer Scientific Inc., Waltham, MA, USA), 2 mM glutamine and 10% fetal calf serum (FCS) for 48 h in 96-well microtiter plates. Cells were washed with PBS and dilutions of PGG (0, 125, 250, 500, 1000 and 2000 nM) and 2 nM Ply in PBS were added to the wells and they were incubated for 2 h at 37 °C in 5% CO2 atmosphere. Ply cytotoxicity was determined with the Cytotoxicity Detection Kit^PLUS (Roche Diagnostics GmbH, Mannheim, Germany) according to the manufacturer’s instructions. The released LDH was measured at A490. Complete lysis control was measured in the presence of 0.02% Triton X-100, and for background measurements, cells were incubated without Ply. The values were normalized by calculating using the equation (A490 Ply+inhibitor − A490 Background)/(A490 Triton X-100 − A490 Background)(1)

[5] = test system: Ply; design: method as in PMID 15928084; conditions: cited from earlier work

T1 sequence (Q04IN8 whole entry): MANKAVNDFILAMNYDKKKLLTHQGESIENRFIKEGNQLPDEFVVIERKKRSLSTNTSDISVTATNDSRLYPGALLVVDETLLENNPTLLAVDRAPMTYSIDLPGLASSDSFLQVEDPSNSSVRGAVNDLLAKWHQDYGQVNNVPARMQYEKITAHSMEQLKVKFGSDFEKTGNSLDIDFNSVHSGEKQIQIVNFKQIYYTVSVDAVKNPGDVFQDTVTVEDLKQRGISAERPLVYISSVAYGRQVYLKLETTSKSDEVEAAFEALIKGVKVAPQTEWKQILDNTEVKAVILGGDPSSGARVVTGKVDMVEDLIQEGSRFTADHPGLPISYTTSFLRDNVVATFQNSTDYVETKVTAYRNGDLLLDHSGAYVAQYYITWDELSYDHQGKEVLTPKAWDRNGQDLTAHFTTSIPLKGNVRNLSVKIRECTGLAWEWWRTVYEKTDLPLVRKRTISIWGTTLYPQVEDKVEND

Structure (SMILES) | Hemolysis Inhibition Inhibitory Power [1] | IC50 ([1]; Hemolysis Inhibition IC50, 1 nM Ply, 1% human erythrocytes, 30 min 37 °C, logistic fit) [µM] | IC50 ([1]; IC50 (screening with hemolysis assays), estimated from the inhibition curves, two-fold dilutions of tannins) [µM] | Inhibitor class in hemolysis inhibition assay ([1]; classification by IC50 from two-fold dilutions) | Minimum Precipitating Concentration ([2]; 10 μM Ply, Na-acetate buffer pH 5.0, 25 °C, 30 min, absorbance 414 nm) [µM] | Precipitation Relative Power ([2]; fold compared to vescalagin (=1)) | Fold higher precipitating concentration compared to hemolysis IC50 ([2]; minimum precipitating concentration vs hemolysis IC50) [fold] | Ply oligomer complex on erythrocytes ([3]; 100 µM PGG, 100 nM Ply, Coomassie-stained SDS-PAGE) | Concentration that still inhibited Ply oligomerization ([3]; dilution series of PGG (0–100 µM), Western blotting with anti-His antibody) [µM] | inhibition at 0.5 µM ([4]; 500 nM PGG, compared to pneumolysin alone) [%] | inhibition at 1 µM ([4]; 1000 nM PGG, compared to pneumolysin alone) [%] | inhibition at 2 µM ([4]; 2000 nM PGG, compared to pneumolysin alone) [%] | Inhibition of LDH release ([4]; ≤250 nM PGG) | Concentration required for inhibition of Ply hemolytic activity [5]
O=C(OC[C@H]1O[C@@H](OC(=O)c2cc(O)c(O)c(O)c2)[C@H](OC(=O)c2cc(O)c(O)c(O)c2)[C@@H](OC(=O)c2cc(O)c(O)c(O)c2)[C@@H]1OC(=O)c1cc(O)c(O)c(O)c1)c1cc(O)c(O)c(O)c1 [PGG, 1,2,3,4,6-penta-O-galloyl-β-D-glucose] | 13 | 0.018 ± 0.0007 | 0.01 | potent (potent inhibitors (IC50 10–30 nM)) | 14 | 58 | 770 | abolished | 30 | 60 | 87 | 90 | moderate inhibition | 
O=C(O[C@@H]1Cc2c(O)cc(O)cc2O[C@@H]1c1cc(O)c(O)c(O)c1)c1cc(O)c(O)c(O)c1 [EGCG, epigallocatechin gallate] |  |  |  |  |  |  |  |  |  |  |  |  |  | micromolar concentrations were required
